According to patent publication US11046716B2, “Beta-lactamase inhibitors” (priority 2015, dated 2021):

How the values were obtained:
[1] = system: K. pneumoniae expressing the class A carbapenemase KPC-2 and the class B carbapenemase VIM-4; test: Broth microdilution MIC assay with meropenem, K. pneumoniae KPC-2 and VIM-4; assay type: cell-based; conditions: Fixed Mero (meropenem) 4 μg/mL; K. p. A-1797 KPC-2 VIM-4
Outline: (§1)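 In cation-adjusted Mueller Hinton broth, bacteria pre-grown 3-5 hours were exposed to test compound (2-fold, 16–0.125 μg/mL) plus a static 4 μg/ml β-lactam. A panel of control β-lactams was run alongside, and the compound MIC was judged by eye following 16-20 hours at 37° C.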

[2] = system: K. pneumoniae expressing the Class A carbapenemase KPC-2; test: Broth microdilution MIC assay with meropenem, K. pneumoniae KPC-2; assay type: cell-based; conditions: Fixed Mero (meropenem) 4 μg/mL; K. p. 156319 KPC-3
Outline: as §1

AmpC = biological target: T1, AmpC (Enterobacter cloacae, UniProt P05364); test: β-lactamase enzyme inhibition assay, p99 AmpC (nitrocefin substrate); assay type: biochemical
T1 construct: made in house; host or cells: E. coli BL21(DE3)
Outline: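 Compounds are mixed with purified, untagged recombinant β-lactamase and held 15 min at 37 °C. Substrate is then added. Absorbance is followed immediately, and percent inhibition per concentration gives the IC50.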

VIM-2 = biological target: T2, VIM-2 (Escherichia coli, UniProt Q5U7L7); test: β-lactamase enzyme inhibition assay, VIM-2 (nitrocefin substrate); assay type: biochemical; conditions: Class B; nitrocefin substrate, 486 nm; read-out: VIM-2
T2 construct: made in house; host or cells: E. coli BL21(DE3)
Outline: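 Metallo-β-lactamase VIM-2 activity was tracked spectrophotometrically at 486 nm with 100 μM nitrocefin over 10 min, following 15 min preincubation with compound at 37 °C; inhibition was calculated per concentration.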

KPC-2 = biological target: T3, KPC-2 (Klebsiella pneumoniae, UniProt Q9F663); test: β-lactamase enzyme inhibition assay, KPC-2 (imipenem substrate); assay type: biochemical; conditions: Class A; imipenem substrate, 300 nm; read-out: KPC-2
T3 construct: made in house; host or cells: E. coli BL21(DE3)
Outline: (§2)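 Compounds are mixed with purified, untagged recombinant β-lactamase and held 15 min at 37 °C. Substrate is then added: nitrocefin (100 μM final) for OXA-1, imipenem for KPC-2, cefotaxime for SHV-5. Absorbance is followed immediately, and percent inhibition per concentration gives the IC50.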

[3] = system: K. pneumoniae producing the Class D carbapenemase OXA-48; test: Broth microdilution MIC assay with meropenem, K. pneumoniae OXA-48; assay type: cell-based; conditions: Fixed Mero (meropenem) 4 μg/mL; K. p. 11978 OXA-48
Outline: as §1

[4] = system: E. cloacae expressing the Class C P99; test: Broth microdilution MIC assay with ceftazidime, E. cloacae P99; assay type: cell-based; conditions: Fixed CAZ (ceftazidime) 4 μg/mL; E. cl. 144200 p99 AmpC
Outline: as §1

[5] = system: E. coli expressing the Class A Extended Spectrum Beta-Lactamase (ESBL) CTX-M-15; test: Broth microdilution MIC assay with ceftazidime, E. coli CTX-M-15; assay type: cell-based; conditions: Fixed CAZ (ceftazidime) 4 μg/mL; E. coli ESBL4 CTX-M-15
Outline: as §1

OXA-48 = OXA-48 (UniProt Q6XEC0); test: β-lactamase enzyme inhibition assay, Class D oxacillinase; assay type: biochemical; conditions: read-out: OXA-48
[6] = system: P. aeruginosa expressing the Class B carbapenemase VIM-2; test: Broth microdilution MIC assay with meropenem, P. aeruginosa VIM-2; assay type: cell-based; conditions: Fixed Mero (meropenem) 4 μg/mL; P. aerug. 2775 VIM-2
Outline: as §1

SHV-5 = biological target: T4, SHV-5 (Klebsiella pneumoniae, UniProt P0A3M1); test: β-lactamase enzyme inhibition assay, SHV-5 (cefotaxime substrate); assay type: biochemical
T4 construct: made in house; host or cells: E. coli BL21(DE3)
Outline: as §2

T4 sequence (P0A3M1 22-286): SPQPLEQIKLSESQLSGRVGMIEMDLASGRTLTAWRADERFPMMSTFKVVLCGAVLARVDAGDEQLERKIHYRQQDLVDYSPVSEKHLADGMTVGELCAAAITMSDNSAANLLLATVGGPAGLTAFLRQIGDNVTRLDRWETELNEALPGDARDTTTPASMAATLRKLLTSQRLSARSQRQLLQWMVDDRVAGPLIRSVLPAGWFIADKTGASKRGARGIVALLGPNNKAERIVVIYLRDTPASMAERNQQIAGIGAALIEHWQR
T3 sequence (Q9F663 25-293, looked up): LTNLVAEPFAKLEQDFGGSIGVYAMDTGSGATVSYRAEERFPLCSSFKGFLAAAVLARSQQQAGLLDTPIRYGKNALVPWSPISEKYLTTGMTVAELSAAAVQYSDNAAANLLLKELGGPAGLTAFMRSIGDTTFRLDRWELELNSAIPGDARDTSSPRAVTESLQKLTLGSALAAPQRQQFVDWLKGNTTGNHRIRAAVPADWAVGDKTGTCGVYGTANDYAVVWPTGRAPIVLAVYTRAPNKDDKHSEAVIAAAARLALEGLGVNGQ
T1 sequence (P05364 21-381): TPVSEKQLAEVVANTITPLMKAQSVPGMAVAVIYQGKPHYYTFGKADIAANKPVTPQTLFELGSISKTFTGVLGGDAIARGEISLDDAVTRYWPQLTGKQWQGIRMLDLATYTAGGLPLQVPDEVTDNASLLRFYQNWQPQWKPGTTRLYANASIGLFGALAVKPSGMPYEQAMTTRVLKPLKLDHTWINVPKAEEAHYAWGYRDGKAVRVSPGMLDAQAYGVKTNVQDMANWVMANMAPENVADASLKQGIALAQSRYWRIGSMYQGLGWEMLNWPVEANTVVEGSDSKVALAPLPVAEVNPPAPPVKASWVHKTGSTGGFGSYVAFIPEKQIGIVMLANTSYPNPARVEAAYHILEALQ

Row | SMILES | MIC (μg/mL) of Exemplary Compounds in presence of fixed β-lactams: K. p. A-1797 KPC-2 VIM-4 [1] | MIC (μg/mL) of Exemplary Compounds in presence of fixed β-lactams: K. p. 156319 KPC-3 [2] | IC50 (AmpC) [nM] | IC50 (VIM-2) [nM] | IC50 (KPC-2) [nM] | MIC (μg/mL) of Exemplary Compounds in presence of fixed β-lactams: K. p. 11978 OXA-48 [3] | MIC (μg/mL) of Exemplary Compounds in presence of fixed β-lactams: E. cl. 144200 p99 AmpC [4] | MIC (μg/mL) of Exemplary Compounds in presence of fixed β-lactams: E. coli ESBL4 CTX-M-15 [5] | IC50 (OXA-48) [nM] | MIC (μg/mL) of Exemplary Compounds in presence of fixed β-lactams: P. aerug. 2775 VIM-2 [6] | IC50 (SHV-5) [nM]
1 | CC(C)NCCn1nnnc1CC(=O)N[C@H]1Cc2cccc(C(=O)O)c2OB1O [Example 52, (R)-2-hydroxy-3-(2-(1-(2-(isopropylamino)ethyl)-1H-tetrazol-5-yl)acetamido)-3,4-dihydro-2H-benzo[e][1,2]oxaborinine-8-carboxylic acid] | B (B represents an MIC between 1 and 16 μg/mL inclusive) | C (C represents an MIC of <1 μg/mL) | < 100 | < 100 | < 100 | B (B represents an MIC between 1 and 16 μg/mL inclusive) | C (C represents an MIC of <1 μg/mL) | C (C represents an MIC of <1 μg/mL) | 1000 to 10000 | C (C represents an MIC of <1 μg/mL) | < 100
2 | CCN(CC)Cc1cn(CC(=O)N[C@H]2Cc3cccc(C(=O)O)c3OB2O)nn1 [Example 27, (R)-3-(2-(4-((diethylamino)methyl)-1H-1,2,3-triazol-1-yl)acetamido)-2-hydroxy-3,4-dihydro-2H-benzo[e][1,2]oxaborinine-8-carboxylic acid] | B (B represents an MIC between 1 and 16 μg/mL inclusive) | B (B represents an MIC between 1 and 16 μg/mL inclusive) | < 100 | 100 to 1000 | < 100 | B (B represents an MIC between 1 and 16 μg/mL inclusive) | C (C represents an MIC of <1 μg/mL) | C (C represents an MIC of <1 μg/mL) | 100 to 1000 | B (B represents an MIC between 1 and 16 μg/mL inclusive) | < 100
3 | NCCc1nnn(CC(=O)N[C@H]2Cc3cccc(C(=O)O)c3OB2O)n1 [Example 103, (R)-3-(2-(5-(2-aminoethyl)-2H-tetrazol-2-yl)acetamido)-2-hydroxy-3,4-dihydro-2H-benzo[e][1,2]oxaborinine-8-carboxylic acid] | B (B represents an MIC between 1 and 16 μg/mL inclusive) | C (C represents an MIC of <1 μg/mL) | < 100 | 100 to 1000 | < 100 | B (B represents an MIC between 1 and 16 μg/mL inclusive) | C (C represents an MIC of <1 μg/mL) | C (C represents an MIC of <1 μg/mL) | 100 to 1000 | C (C represents an MIC of <1 μg/mL) | 100 to 1000
4 | NCCn1cnnc1CC(=O)N[C@H]1Cc2cccc(C(=O)O)c2OB1O [Example 117, (R)-3-(2-(4-(2-aminoethyl)-4H-1,2,4-triazol-3-yl)acetamido)-2-hydroxy-3,4-dihydro-2H-benzo[e][1,2]oxaborinine-8-carboxylic acid] | B (B represents an MIC between 1 and 16 μg/mL inclusive) | C (C represents an MIC of <1 μg/mL) | < 100 | 100 to 1000 | 100 to 1000 | B (B represents an MIC between 1 and 16 μg/mL inclusive) | C (C represents an MIC of <1 μg/mL) | C (C represents an MIC of <1 μg/mL) | 100 to 1000 | C (C represents an MIC of <1 μg/mL) | < 100
5 | NCc1nnn(CC(=O)N[C@H]2Cc3cccc(C(=O)O)c3OB2O)c1I [Example 105, (R)-3-(2-(4-(aminomethyl)-5-iodo-1H-1,2,3-triazol-1-yl)acetamido)-2-hydroxy-3,4-dihydro-2H-benzo[e][1,2]oxaborinine-8-carboxylic acid] | C (C represents an MIC of <1 μg/mL) | C (C represents an MIC of <1 μg/mL) | < 100 | < 100 | < 100 | C (C represents an MIC of <1 μg/mL) | C (C represents an MIC of <1 μg/mL) | C (C represents an MIC of <1 μg/mL) | < 100 | C (C represents an MIC of <1 μg/mL) | 100 to 1000
6 | N=C(N)NCCCn1nnnc1CC(=O)N[C@H]1Cc2cccc(C(=O)O)c2OB1O [Example 53, (R)-3-(2-(1-(3-guanidinopropyl)-1H-tetrazol-5-yl)acetamido)-2-hydroxy-3,4-dihydro-2H-benzo[e][1,2]oxaborinine-8-carboxylic acid] | C (C represents an MIC of <1 μg/mL) | C (C represents an MIC of <1 μg/mL) | < 100 | < 100 | < 100 | B (B represents an MIC between 1 and 16 μg/mL inclusive) | C (C represents an MIC of <1 μg/mL) | C (C represents an MIC of <1 μg/mL) | 1000 to 10000 | C (C represents an MIC of <1 μg/mL) | < 100
7 | Cc1c(CN)nnn1CC(=O)N[C@H]1Cc2cccc(C(=O)O)c2OB1O [Example 106, (R)-3-(2-(4-(aminomethyl)-5-methyl-1H-1,2,3-triazol-1-yl)acetamido)-2-hydroxy-3,4-dihydro-2H-benzo[e][1,2]oxaborinine-8-carboxylic acid] | C (C represents an MIC of <1 μg/mL) | C (C represents an MIC of <1 μg/mL) | < 100 | < 100 | < 100 | B (B represents an MIC between 1 and 16 μg/mL inclusive) | C (C represents an MIC of <1 μg/mL) | C (C represents an MIC of <1 μg/mL) | < 100 | C (C represents an MIC of <1 μg/mL) | 100 to 1000
